Converted amounts (≈) assume the structure as drawn. Like-named read-outs stand apart in the source and are kept apart here.
Tests used:
[1] = Pharmacokinetic studies in xenografted mice (plasma and tumor); type: in vivo, CD-1 Nu/Nu female mice; details: female, CD-1 Nu/Nu, mouse, iv
Method: CD-1 Nu/Nu female mice implanted with the human colon carcinoma SW480 cell line are treated with either the “Parent Drug”, i.e. 3-(4-{1-[2-(4-amino-phenyl)-2-oxo-ethyl]-1H-benzoimidazol-2-yl}-furazan-3-ylamino)-propionitrile, or “Example 1” i.e. S-2,6-diamino-hexanoic acid [4-(2-{2-[4-(2-cyano-ethylamino)-furazan-3-yl]-benzoimidazol-1-yl}-acetyl)-phenyl]-amide hydrochloride salt, when the tumor size reached approximately 150 mm^3+/−10%. Mice (33 per compound) are treated i.v. […]
After the 4th application (4th week), three mice/sampling point from the “Parent Drug” and “Example 1” groups are culled before and 5 min, 15 min, 30 min, 45 min, 1 h, 1.5 h, 2 h, 4 h, 6 h and 24 h post-administration. Blood is collected by cardiac puncture into K3EDTA tubes kept on ice until centrifugation at 4° C. Plasma is stored at −20° C. At necropsy, tumors are removed and weighed. Tumors are stored at −20° C. Plasma and tumor samples are analyzed by LC-MS/MS. Pharmacokinetic parameters are calculated using WinNonLin 5.2. All results for “Example 1” represent the free base.

[2] = Determination of kinetic solubility; type: physicochemical; details: aqueous buffer, kinetic from dmso stock, 2.5% DMSO, room temperature, read-out: C eff
Method: Compounds, provided as 20 mM or 10 mM stock solutions in 100% DMSO, are diluted 1:40 in aqueous buffer to a concentration of 0.5 mM or 0.25 mM, respectively, with 2.5% residual DMSO. The pH 6.5 buffer consists of 0.05 M 3-(N-morpholino)-2-hydroxypropanesulfonic acid (MOPSO) adjusted to the target pH with NaOH. Buffers at pH 5 and pH 3 are prepared from commercially available concentrates (Titrisol®, Merck). The samples are then incubated at room temperature for 6 hours with gentle shaking followed by vacuum filtration through a MultiScreen DV plate (Durapore hydrophilic PVDF membrane, 0.65 μm pore size, Millipore). The filtrates are adjusted to 20% acetonitrile and analyzed by UV spectroscopy to obtain the absorption maximum and the corresponding wavelength. The concentration of compound in the filtrate is calculated based on the linear part of a standard curve constructed using 3 to 5 known concentrations of each sample in aqueous buffer supplemented with 20% acetonitrile.

[3] = Determination of the maximum tolerated dose (MTD), once weekly i.v.; details: athymic nude, mouse, in vivo, iv
Description: Mice bearing SW480 colorectal cancer xenografts are used to test and compare the anti-cancer efficacy and tolerability of intravenous (i.v.) application of the prodrug according to Example 1 (S-2,6-diamino-hexanoic acid [4-(2-{2-[4-(2-cyano-ethylamino)-furazan-3-yl]-benzoimidazol-1-yl}-acetyl)-phenyl]-amide hydrochloride salt) and the corresponding parent drug” (3-(4-{1-[2-(4-amino-phenyl)-2-oxo-ethyl]-1H-benzoimidazol-2-yl}-furazan-3-ylamino)-propionitrile) at the maximum tolerated dose level (MTD). Prior to the efficacy experiment, a determination of the MTD of each compound administered once weekly is performed in non-tumor-bearing nude mice of the same strain. Administration of 24.5 mg/kg prodrug and 10 mg/kg parent drug, given as an i.v. bolus once weekly, results in body weight losses >10% in a few animals in both groups. The MTDs in tumor-bearing mice are, therefore, determined to be 15-20% lower, resulting in doses of 21 mg/kg prodrug and 8 mg/kg parent drug. Human colorectal carcinoma cells (SW480) are injected subcutaneously (4×10^6 cells) into the back of 4-8-week old athymic nude mice. Tumor volumes are determined from calliper measurements of tumor length (L) and width (1) according to the formula (L×l^2)/2. Tumors are allowed to expand to a volume of 200 mm^3 (±10%) before treatment start. […] Tumor volume and body weight are monitored daily.

[4] = system: SW480 colorectal cancer xenografts; experiment: In vivo efficacy studies, SW480 xenografts; set-up: species or system athymic nude mice; details: for final T/C (ratio of tumor volume in the treatment group vs. the control group) at day 24: once weekly i.v. for 24 days, prodrug 21 mg/kg, parent drug 8 mg/kg; for final T/C (day 24): three times per week (d1/4/7) i.v. for 24 days, prodrug 7.1 mg/kg
Description: Mice bearing SW480 colorectal cancer xenografts are used to test and compare the anti-cancer efficacy and tolerability of intravenous (i.v.) application of the prodrug according to Example 1 (S-2,6-diamino-hexanoic acid [4-(2-{2-[4-(2-cyano-ethylamino)-furazan-3-yl]-benzoimidazol-1-yl}-acetyl)-phenyl]-amide hydrochloride salt) and the corresponding parent drug” (3-(4-{1-[2-(4-amino-phenyl)-2-oxo-ethyl]-1H-benzoimidazol-2-yl}-furazan-3-ylamino)-propionitrile) at the maximum tolerated dose level (MTD). Prior to the efficacy experiment, a determination of the MTD of each compound administered once weekly is performed in non-tumor-bearing nude mice of the same strain. Administration of 24.5 mg/kg prodrug and 10 mg/kg parent drug, given as an i.v. bolus once weekly, results in body weight losses >10% in a few animals in both groups. The MTDs in tumor-bearing mice are, therefore, determined to be 15-20% lower, resulting in doses of 21 mg/kg prodrug and 8 mg/kg parent drug. Human colorectal carcinoma cells (SW480) are injected subcutaneously (4×10^6 cells) into the back of 4-8-week old athymic nude mice. Tumor volumes are determined from calliper measurements of tumor length (L) and width (1) according to the formula (L×l^2)/2. Tumors are allowed to expand to a volume of 200 mm^3 (±10%) before treatment start. The prodrug and parent drug are administered i.v. for 24 days, either once per week at 21 mg/kg and 8 mg/kg, respectively, or three times a week (d1/4/7) at 7.1 mg/kg and 2.7 mg/kg, respectively (both schedules represent the same total weekly dose). Tumor volume and body weight are monitored daily.
(§1) FIG. 1 provides a graphical representation of the changes in mean tumor volume during the time of treatment when using the administration schedule, wherein prodrug and parent drug are given once weekly for 24 days at doses of 21 mg/kg and 8 mg/kg, respectively, with appropriate vehicle controls (5 ml/kg) administered with the same schedule. Data points represent mean values+/−SEM (n=7-8 animals, each animal was engrafted with one tumor).
as §1, with “2” for “1”, “three times per week (d1/4/7)” for “once weekly”, “7.1” for “21”, “2.7 mg/kg in 5 ml/kg,” for “8 mg/kg,”, “points again” for “points”

[5] = Prodrug-drug conversion in full blood; type: in vitro ADME; details: fresh heparinised rat blood, 37° C., after 120 min
Method: 495 μL fresh heparinised rat blood are spiked with 5 μL of a 1 mg/mL DMSO solution of the analyte (prodrug) at 37° C. After t=0, 5, 15, 30, 60 and 120 min, a blood sample is taken and precipitated. Therefore to 50 μL blood sample or spiked blood sample 150 μL acetonitrile containing an internal standard are added. Samples are centrifuged and 20 μl of the supernatant are injected into the HPLC system for determination of compound concentration (prodrug and parent drug) by LC-MS/MS analysis.
For calibration, a standard curve is prepared with a compound concentration range from 10 to 10000 ng/mL in fresh heparine rat blood. Therefore the blood is spiked (2 μL DMSO solution in 198 μL fresh rat blood) and precipitated like unknown samples.

[6] = In vivo pharmacokinetic studies, intravenous administration, Vena saphena screening method; set-up: species or system male NMRI mice; details: mice, i.v. administration of the prodrug
Method: The compounds are evaluated in vivo after intravenous administration to male NMRI mice using the Vena saphena screening method.
A dose of 1 mg/kg of the compound is administered i.v. as a bolus (5 mL/kg). Serial blood samples (40 μL) are drawn after puncture of the saphenous vein and collected in a sodium heparin coated capillary tube from two mice per time point at pre-dose, 5 min, 15 min, 30 min, 45 min, 1 h, 2 h, 4 h, 6 h, 8 h and 24 h after intravenous administration.
Blood samples are weighed and the blood quenched in 300 μl stop solution consisting of acetonitrile/water (80:20) and an internal standard.
Blood concentrations of the compound (prodrug) and its parent drug are determined using LC-MS/MS analysis with a limit of quantification of 4 to 40 ng/mL.
Mean arithmetic plasma/blood concentrations are calculated using BLQ (below limit of quantitation)−value of zero if necessary. • Mean AUCinfIV [ng*h/mL] The area under the blood concentration-time curve for a mean normalized (1 mg/kg) iv application from time zero to the last sampling time with a concentration above the limit of quantification. • Mean AUCinfIV is calculated according to the linear trapezoidal rule.
In a study mice are intravenously treated with prodrugs according to the invention, followed by determination of the blood concentration of the drug. […]

`N#CCCNc1nonc1-c1nc2ccccc2n1CC(=O)c1ccc(NC(=O)[C@@H](N)CCCCN)cc1` [Example 1, S-2,6-diamino-hexanoic acid [4-(2-{2-[4-(2-cyano-ethylamino)-furazan-3-yl]-benzoimidazol-1-yl}-acetyl)-phenyl]-amide] gave an AUC(0-t) ([1]; plasma, analyte Example 1 (free base), after i.v. 19.6 mg Example 1, xenografted mice, read-out: AUClast of Example 1 in plasma) of 21100 ng·h/mL, a Cmax ([1]; plasma, analyte Example 1 (free base), after i.v. 19.6 mg Example 1, xenografted mice, read-out: Cmax of Example 1 in plasma) of 81900 ng/mL and a half-life ([1]; plasma, analyte Example 1 (free base), after i.v. 19.6 mg Example 1, xenografted mice, read-out: T1/2 of Example 1 in plasma (converted)) of 5.5 h. It also gave an AUC(0-t) ([1]; tumor, analyte Example 1 (free base), after i.v. 19.6 mg Example 1, xenografted mice, read-out: AUClast of Example 1 in tumors) of 29300 ng·h/mL, a Cmax ([1]; tumor, analyte Example 1 (free base), after i.v. 19.6 mg Example 1, xenografted mice, read-out: Cmax of Example 1 in tumors) of 6010 ng/mL and a half-life ([1]; tumor, analyte Example 1 (free base), after i.v. 19.6 mg Example 1, xenografted mice, read-out: T1/2 of Example 1 in tumors (converted)) of 9.6 h. The solubility kinetic at 6 h ([2]; pH 3.0 buffer) was greater than 200 µM, the solubility kinetic at 6 h ([2]; pH 5.0 buffer) was greater than 200 µM and the solubility kinetic at 6 h ([2]; pH 6.5 buffer) was 190 µM (≈ 98 µg/mL). The MTD [3] was 21 mg/kg, the “final T/C (ratio of tumor volume in the treatment group vs. the control group) at day 24” value [4] was 34% and the “final T/C (day 24)” value ([4]; parent drug 2.7 mg/kg) was 26%.
Work on `C[C@H](N)C(=O)Nc1ccc(C(=O)Cn2c(-c3nonc3NCCC#N)nc3ccccc32)cc1` [Example 2] yielded a solubility kinetic at 6 h ([2]; pH 3.0 buffer) greater than 200 µM, a solubility kinetic at 6 h ([2]; pH 5.0 buffer) of 55 µM (≈ 25.2 µg/mL) and a solubility kinetic at 6 h ([2]; pH 6.5 buffer) of 91 µM (≈ 41.7 µg/mL).
Compound `N#CCCNc1nonc1-c1nc2ccccc2n1CC(=O)c1ccc(NC(=O)CN)cc1` [Example 3] has a solubility kinetic at 6 h ([2]; pH 3.0 buffer) greater than 200 µM, a solubility kinetic at 6 h ([2]; pH 5.0 buffer) of 71 µM (≈ 31.6 µg/mL) and a solubility kinetic at 6 h ([2]; pH 6.5 buffer) of 106 µM (≈ 47.1 µg/mL).
Work on `CC(C)C[C@H](N)C(=O)Nc1ccc(C(=O)Cn2c(-c3nonc3NCCC#N)nc3ccccc32)cc1` [Example 11] yielded a solubility kinetic at 6 h ([2]; pH 3.0 buffer) of 189 µM (≈ 94.6 µg/mL), a solubility kinetic at 6 h ([2]; pH 5.0 buffer) of 37 µM (≈ 18.5 µg/mL) and a solubility kinetic at 6 h ([2]; pH 6.5 buffer) of 20 µM (≈ 10 µg/mL).
In the case of `NCC(=O)Nc1ccc(C(=O)Cn2c(-c3nonc3N)nc3ccccc32)cc1` [Example 12, 2-Amino-N-(4-{2-[2-(4-amino-furazan-3-yl)-benzoimidazol-1-yl]-acetyl}-phenyl)-acetamide], the “conversion of prodrug into its parent drug” value [5] is reported as “completely converted”.
With `NCC(=O)Nc1nonc1-c1nc2ccccc2n1CC(=O)c1ccc(N)cc1` [Example 13, 2-Amino-N-(4-{1-[2-(4-amino-phenyl)-2-oxo-ethyl]-1H-benzoimidazol-2-yl}-furazan-3-yl)-acetamide] the “conversion of prodrug into its parent drug” value [5] was “approximately 74%”.
With `CN(C)/C=N/c1ccc(C(=O)Cn2c(-c3nonc3NCCC#N)nc3ccccc32)cc1` [Example 14, N′-[4-(2-{2-[4-(2-Cyano-ethylamino)-furazan-3-yl]-benzoimidazol-1-yl}-acetyl)-phenyl]-N,N-dimethyl-formamidine] the “levels of the parent drug after intravenous administration” value [6] was “no significant levels”.
In the case of `N#CCCNc1nonc1-c1nc2ccccc2n1CC(=O)c1ccc(NS(=O)(=O)O)cc1` [Example 15, [4-(2-{2-[4-(2-Cyano-ethylamino)-furazan-3-yl]-benzoimidazol-1-yl}-acetyl)-phenyl]-sulfamic acid], the “levels of the parent drug after intravenous administration” value [6] is reported as “no significant levels”.
Work on `N#CCCNc1nonc1-c1nc2ccccc2n1CC(=O)c1ccc(N)cc1` [Parent Drug, 3-(4-{1-[2-(4-Amino-phenyl)-2-oxo-ethyl]-1H-benzoimidazol-2-yl}-furazan-3-ylamino)-propionitrile, reference compound] yielded a Cmax ([1]; plasma, after i.v. 8 mg/kg Parent Drug, 4th application, xenografted mice, read-out: Cmax of Parent Drug in plasma) of 11000 ng/mL, an AUC(0-t) ([1]; plasma, after i.v. 8 mg/kg Parent Drug, xenografted mice, read-out: AUClast of Parent Drug in plasma) of 44800 ng·h/mL and a half-life ([1]; plasma, after i.v. 8 mg/kg Parent Drug, xenografted mice, read-out: T1/2 of Parent Drug in plasma (converted)) of 3.2 h. For the same compound, the Cmax ([1]; tumor, after i.v. 8 mg/kg Parent Drug, 4th application, xenografted mice, read-out: Cmax of Parent Drug in tumors) was 3210 ng/mL, the AUC(0-t) ([1]; tumor, after i.v. 8 mg/kg Parent Drug, xenografted mice, read-out: AUClast of Parent Drug in tumors) was 45500 ng·h/mL and the half-life ([1]; tumor, after i.v. 8 mg/kg Parent Drug, xenografted mice, read-out: T1/2 of Parent Drug in tumors (converted)) was 5.4 h. For the same compound, the solubility kinetic at 6 h ([2]; pH 3.0 buffer) was less than 10 µM, the solubility kinetic at 6 h ([2]; pH 5.0 buffer) was less than 10 µM and the solubility kinetic at 6 h ([2]; pH 6.5 buffer) was less than 10 µM. For the same compound, the MTD ([3]; i.v. once weekly, set 15-20% lower than dose causing body weight loss, read-out: MTD in tumor-bearing mice) was 8 mg/kg, the “final T/C (ratio of tumor volume in the treatment group vs. the control group) at day 24” value [4] was 45% and the “final T/C (day 24)” value ([4]; parent drug 2.7 mg/kg) was 54%. For the same compound, the “death of animals during treatment” value ([4]; three times per week i.v., parent drug 2.7 mg/kg) was “one animal in the parent drug-group (three times per week treatment) died at day 10”.

— patent publication US8802858B2, “Furazanobenzimidazoles as prodrugs to treat neoplastic or autoimmune diseases” (Basilea Pharmaceutica AG, priority 2009, dated 2014)
